Measurements reported in PMC12079444, “Antagonist Targeting the Species‐Specific Fatty Acid Dehydrogenase/Isomerase FabX for Anti‐H. pylori Infection” (Advanced Science, 2025).
≈ marks a conversion by molar mass, not a printed value. Like-named read-outs stand apart in the source and are kept apart here.

Columns and labels:
FabX [1] = target: T1, FabX (Helicobacter pylori, UniProt O25465); test: FabX-FabI coupled assay, NADH absorbance […] nm; assay type: biochemical
T1 construct: gene HP_0773; recombinant from pQE2 vector in E. coli BL21(DE3) Rosetta, Ni-NTA, HiTrap-SP, Superdex75; FMN and [4Fe-4S] cofactors
T1 sequence (O25465 1-363): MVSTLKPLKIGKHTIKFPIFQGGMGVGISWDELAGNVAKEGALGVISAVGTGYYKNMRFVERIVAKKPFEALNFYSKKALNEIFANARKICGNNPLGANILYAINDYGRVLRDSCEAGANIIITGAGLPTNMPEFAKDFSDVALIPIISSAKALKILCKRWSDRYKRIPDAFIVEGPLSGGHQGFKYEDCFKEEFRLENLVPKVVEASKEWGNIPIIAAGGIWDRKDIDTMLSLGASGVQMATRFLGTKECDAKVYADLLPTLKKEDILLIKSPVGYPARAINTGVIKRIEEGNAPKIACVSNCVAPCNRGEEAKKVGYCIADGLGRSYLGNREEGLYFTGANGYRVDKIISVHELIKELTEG

FabX [2] = target: T1, FabX; test: FabX-FabI coupled assay, NADH absorbance […] nm; assay type: biochemical; settings: read-out: FabX enzymatic activity / 10 × 10^-6 M [%]
[3] = system: T2, Helicobacter pylori BHKS 568; test: microbe, parasite or virus in culture; settings: BHKS568, read-out: MIC
T2 construct: BHKS568 (NSH57 IR0203::fabX ΔfabX) native fabX relocated to IR0203
Experimental: (§1) The sensitivity of H. pylori strains to various compounds was assessed by determining the MIC and evaluating the growth of the strains on the drug‐containing agar media. The MIC was measured using the broth microdilution assay as described previously.^[ [27] ^] Twofold serial dilutions of the test compounds were prepared using BHI broth supplemented with 10% FCS in 96‐well microtiter plates. Diluted H. pylori cultures, adjusted to a final concentration of 5 × 10^5 CFU mL^−1, were then added to each well. The cultures were incubated for 48–72 h in a microaerobic environment at 37 °C. The MIC was determined by visual inspection. H. pylori strains used in this study were cultured on brain heart infusion (BHI) broth (Oxoid, UK) or Columbia blood agar medium (Oxoid, UK) supplemented with 10% fetal calf serum (FCS). The cultures were incubated at 37 °C for 48–72 h under microaerobic environments in a double‐gas CO2 incubator (Binder, Germany). The wild‐type strains G27 and NSH57 used in this study were kindly provided by Prof. Nina R. Salama from the Fred Hutchinson Cancer Research Center (USA). Three clinical H. pylori strains (BYES129, BY924, and JIGC0009) were isolated from biopsy samples from three patients with gastritis or gastric cancer using standard protocols. Strains BHKS551 (NSH57 IR0203::fabA ΔfabX) and BHKS568 (NSH57 IR0203::fabX ΔfabX) were described previously.^[ [19] ^] The following 15 reference strains of different species were also used: Escherichia coli ATCC 25922, Klebsiella pneumoniae ATCC 35657, Pseudomonas aeruginosa PAO1, Salmonella enterica serovar Typhimurium ATCC 14028, Shigella dysenteriae Sd197, Acinetobacter baumannii ATCC 19606, Proteus mirabilis ATCC 29906, Enterobacter cloacae ATCC 13047, Stenotrophomonas maltophilia ATCC 51331, Bacillus subtilis 168, Enterococcus faecium ATCC 19434, Staphylococcus aureus ATCC 25923, Staphylococcus haemolyticus ATCC 29970, Listeria monocytogenes EGDe, and Morganella morganii ATCC 25830. These non‐Helicobacter bacterial strains were cultured as described previously.^[ [25] ^] We evaluated the antibacterial activities of selected compounds (IC 50 < 1 × 10^−6 M) against several H. pylori strains (Table S3∖, Supporting Information), particularly against strains BHKS551 and BHKS211 (the FabX overexpressed strain, hereinafter referred to as FabX^OE) to validate the on‐target effect in vivo. Note that FabX is overproduced 3.32‐fold in strain BHKS211 compared to the control strain BHKS210 carrying the empty vector (Figure S3, Supporting Information). […] This could be due to the fact that the carboxyl group of 8j readily deprotonates and acquires negative charge at physiological pH, which reduces its lipophilicity and prevents it from permeating the bacterial cell membrane. To address this issue, we employed a prodrug strategy and synthesized esters from 8j by attaching it to lipophilic alcohols (8p‐8u) or a lipophilic cation 6‐hydroxyhexyltriphenylphosphonium bromide (8v) (Figure 3). […] Compounds 8p‐8s were synthesized as shown in Scheme 1, while compounds 8t‐8v were synthesized as described in Scheme 3 . 8q was hydrolyzed with NaOH to yield 8j, which was subsequently reacted with various alcohols by Steglich esterification to produce compounds 8t‐8v.

[4] = system: T3, Helicobacter pylori BHKS 210; test: microbe, parasite or virus in culture; settings: BHKS210, read-out: MIC
T3 construct: BHKS210 (NSH57/empty vector pTM117) wild-type NSH57 with empty vector
Experimental: as §1

Helicobacter pylori G27 = system: T4, Helicobacter pylori G27; test: microbe, parasite or virus in culture; settings: G27, read-out: MIC
T4 construct: G27
Experimental: as §1

FabX [5] = target: T1, FabX; test: biochemical; set-up: FabX-FabI enzyme-coupled assay, NADH consumption read-out of FabX inhibition; settings: for inhibition at 1 µM: read-out: Inhibition (%) 1 μM; for inhibition at 10 µM: read-out: Inhibition (%) 10 μM
Source text: To discover small molecule inhibitors targeting FabX, we performed protein thermal shift assay (PTSA) based high‐throughput screening against an in‐house chemical library of 11000 small molecule compounds, and established a multienzymatic cascade reaction system by incorporating the enoyl acyl carrier protein reductase FabI from H. pylori into the hit validation system, where FabI catalyzes the reduction of FabX catalytic product enoyl‐ACP in the fourth step of the elongation cycle, accompanying the elimination of NADH (Figure 2A,B). […] Subsequently, the inhibitory activities of these derivatives at 10 × 10^−6 and 1 × 10^−6 M were evaluated, and the structure–activity relationship (SAR) was analyzed (Figure S2, Supporting Information). In the first round of SAR, we briefly examined the influence of the substituents’ positions (C3 and C4), the electronic effects, and the polarity in the A moiety. We synthesized compounds 1a‐1l and evaluated their enzymatic activities (Table S1, Supporting Information). […] In particular, 3‐CN (1e) and 3‐COOH (1i) enhanced the inhibitory activity. We speculate that these two groups may act as hydrogen bond acceptors, forming hydrogen bonds with FabX and enhancing the interaction. We then retained the 3‐CN group in the A moiety and optimized the B moiety to investigate the 2,4‐disubstitution by synthesizing 8a‐8c (Figure 3). […] [picture] Figure S1. Schematic diagram of Type-II fatty acid biosynthesis pathway (FAS-II) in Helicobacter pylori. FabX (red sphere) catalyzes the dehydrogenation and isomerization of the saturated acyl group on ACP (the fifth step in the elongation cycle) for cis-double bond introduction and UFA synthesis. The black and blue curves indicate the SFA and UFA synthesis processes, respectively, while the blue dashes indicate the absence of the conventional fabA gene in the genome of H. pylori. [picture] Figure S2. Bioactivity evaluation of FBX-1 derivatives at 10 μM and 1 μM in the FabX-FabI enzyme-coupled assay. [picture] Figure S3. Overexpression of FabX in strain BHKS211. BHKS210 (NSH57/Vec) and BHKS211 (NSH57/fabX) were cultured in BHI broth supplemented with 10% FCS to an OD600 of 0.3 and then harvested. RNA isolation, reverse transcription, and real-time PCR were performed as described in the EXPERIMENTAL METHODS section. The relative levels of fabX expression in BHKS211 compared to the control strain BHKS210 are represented. The data are the averages ± standard deviations from three independent experiments.

[6] = system: T5, Helicobacter pylori Hp129; test: microbe, parasite or virus in culture; settings: HP129, read-out: MIC
T5 construct: Hp129
Experimental: as §1

FabX [7] = target: T1, FabX; test: biochemical; set-up: FabX inhibition in multienzymatic cascade coupled to FabI, NADH consumption read-out; settings: read-out: % inhibition
Source text: To discover small molecule inhibitors targeting FabX, we performed protein thermal shift assay (PTSA) based high‐throughput screening against an in‐house chemical library of 11000 small molecule compounds, and established a multienzymatic cascade reaction system by incorporating the enoyl acyl carrier protein reductase FabI from H. pylori into the hit validation system, where FabI catalyzes the reduction of FabX catalytic product enoyl‐ACP in the fourth step of the elongation cycle, accompanying the elimination of NADH (Figure 2A,B). […] The subcloning, expression, and purification of FabX, FabI, and ACP from H. pylori, FabK from S. pneumoniae, and FabA from E. coli were described previously.^[ [19] ^] Briefly, fabX, fabI, fabK, and fabA genes were subcloned to pQE2 vector, while the Acp gene was subcloned to pET32a vector, respectively. The proteins were expressed in BL21(DE3) Rosetta cells, purified by using Ni‐NTA affinity column, HiTrap‐SP column, GE HiLoad 16/600 Superdex75 prep grade gel‐filtration column. The peaks from the gel‐filtration column were further pooled, concentrated, and the final concentration of the proteins was quantified by the Bradford reagent purchased from Bio‐Rad.

| SMILES | IC50 (FabX [1]) [nM] | inhibition at 1 µM (FabX [5]) [%] | inhibition at 10 µM (FabX [5]) [%] | also measured |
| --- | --- | --- | --- | --- |
| O=S(=O)(Nc1cccc(-c2nnn[nH]2)c1)c1cccnc1Nc1ccc(Cl)cc1Cl [8l] | 904 ± 177 | – | – | – |
| O=c1[nH]c(-c2cccc(NS(=O)(=O)c3cccnc3Nc3ccc(Cl)cc3Cl)c2)no1 [8k] | 665 ± 85 | – | – | – |
| O=C(OCCCCCC[P+](c1ccccc1)(c1ccccc1)c1ccccc1)c1cccc(NS(=O)(=O)c2cccnc2Nc2ccc(Cl)cc2Cl)c1 [8v] | – | – | – | inhibition at 10 µM (FabX [2]): 42%; MIC [3]: 16 µg/mL; MIC [4]: 16 µg/mL; MIC (Helicobacter pylori G27): 32 µg/mL |
| N#Cc1cccc(NS(=O)(=O)c2ncccc2Nc2ccc(Cl)cc2Cl)c1 [11c, N-(3-cyanophenyl)-3-((2,4-dichlorophenyl)amino)pyridine-2-sulfonamide] | – | 17 | 60 | – |
| O=S(=O)(NCc1ccccc1)c1cccnc1Nc1ccc(Cl)cc1 [1l] | – | 12 | 25 | – |
| CC(C)(C)OC(=O)c1cccc(NS(=O)(=O)c2cccnc2Nc2ccc(Cl)cc2Cl)c1 [8s] | – | – | – | inhibition at 10 µM (FabX [2]): 10%; MIC [3]: 32 µg/mL (≈ 64.7 µM); MIC [4]: 32 µg/mL (≈ 64.7 µM); MIC (Helicobacter pylori G27): 64 µg/mL (≈ 129 µM); MIC [6]: 32 µg/mL (≈ 64.7 µM) |
| N#Cc1cccc(NS(=O)(=O)c2cccnc2Nc2ccc(Cl)cc2Cl)c1 [8c] | 625 ± 82 | 77 | 100 | – |
| N#Cc1cccc(NS(=O)(=O)c2ccncc2Nc2ccc(Cl)cc2Cl)c1 [11a, N-(3-cyanophenyl)-3-((2,4-dichlorophenyl)amino)pyridine-4-sulfonamide] | – | 100 | 100 | IC50 (FabX [5]): 480 ± 61 nM |
| COc1cccc(NS(=O)(=O)c2cccnc2Nc2ccc(Cl)cc2)c1 [1g] | – | – | 21 | – |
| O=S(=O)(Nc1ccc(F)nc1)c1cccnc1Nc1ccc(Cl)cc1 [1k] | – | – | 12 | – |
| N#Cc1cccc(NS(=O)(=O)c2ccccc2Nc2ccc(Cl)cc2Cl)c1 [11d, N-(3-cyanophenyl)-2-((2,4-dichlorophenyl)amino)benzenesulfonamide] | – | 60 | 94 | IC50 (FabX [5]): 2380 ± 225 nM |
| COc1ccc(NS(=O)(=O)c2cccnc2Nc2ccc(Cl)cc2)cc1 [1f] | – | – | 23 | – |
| O=S(=O)(Nc1ccc(F)cc1)c1cccnc1Nc1ccc(Cl)cc1 [FBX-1] | 9700 ± 1000 | – | – | – |
| CCOC(=O)c1cccc(NS(=O)(=O)c2cccnc2Nc2ccc(Cl)cc2)c1 [1h] | – | – | 35 | – |
| N#Cc1ccc(NS(=O)(=O)c2cccnc2Nc2ccc(Cl)cc2)cc1 [1d, 2-((4-chlorophenyl)amino)-N-(4-cyanophenyl)pyridine-3-sulfonamide] | – | – | 12 | – |
| CCOC(=O)c1cccc(NS(=O)(=O)c2cccnc2Nc2ccc(Cl)cc2Cl)c1 [8q] | 552 ± 118 | – | – | inhibition at 1 µM (FabX [7]): 60%; inhibition at 10 µM (FabX [7]): 100%; MIC [3]: 16 µg/mL (≈ 34.3 µM); MIC [4]: 32 µg/mL (≈ 68.6 µM); MIC (Helicobacter pylori G27): 16 µg/mL (≈ 34.3 µM); MIC [6]: 16 µg/mL (≈ 34.3 µM) |
| O=S(=O)(Nc1cccc(O)c1)c1cccnc1Nc1ccc(Cl)cc1Cl [8n] | 945 ± 111 | – | – | – |
| N#Cc1cccc(NS(=O)(=O)c2cccnc2Nc2ccc(Cl)cc2)c1 [1e] | – | 31 | 88 | – |
| O=C(O)c1cccc(NS(=O)(=O)c2cccnc2Nc2ccc(Cl)cc2)c1 [1i] | – | 19 | 65 | – |
| O=C1COc2ccc(NS(=O)(=O)c3cccnc3Nc3ccc(Cl)cc3Cl)cc2N1 [8m] | 249 ± 38 | – | – | – |
| C#Cc1cccc(NS(=O)(=O)c2cccnc2Nc2ccc(Cl)cc2)c1 [1j] | – | – | 63 | – |
| COC(=O)c1cccc(NS(=O)(=O)c2cccnc2Nc2ccc(Cl)cc2Cl)c1 [8p, FBX-1991] | 158 ± 30 | – | – | inhibition at 1 µM (FabX [7]): 83%; inhibition at 10 µM (FabX [7]): 98%; MIC [3]: 16 µg/mL (≈ 35.4 µM); MIC [4]: 16 µg/mL (≈ 35.4 µM); MIC (Helicobacter pylori G27): 16 µg/mL (≈ 35.4 µM); MIC [6]: 16 µg/mL (≈ 35.4 µM) |
| O=S(=O)(Nc1cccc(I)c1)c1cccnc1Nc1ccc(Cl)cc1 [1c, 2-((4-chlorophenyl)amino)-N-(3-iodophenyl)pyridine-3-sulfonamide] | – | – | 23 | – |
